pIC50: −log10 of the molar value. Bounds are passed on as bounds.

We go through 6 molecules from ChEMBL document CHEMBL5370677, “Emopamil-Binding Protein Inhibitors for Treating Multiple Sclerosis” (ACS Med Chem Lett, 2023).

Sequence of 3-beta-hydroxysteroid-Delta(8),Delta(7)-isomerase (Q15125 whole entry): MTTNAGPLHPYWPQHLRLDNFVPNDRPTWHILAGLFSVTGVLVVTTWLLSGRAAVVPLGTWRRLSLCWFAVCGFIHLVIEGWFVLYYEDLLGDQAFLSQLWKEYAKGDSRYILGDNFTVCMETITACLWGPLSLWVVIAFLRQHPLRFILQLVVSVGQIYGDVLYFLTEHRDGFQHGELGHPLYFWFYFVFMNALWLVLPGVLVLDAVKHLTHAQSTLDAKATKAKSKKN

This experiment has as its target 3-beta-hydroxysteroid-Delta(8),Delta(7)-isomerase (Homo sapiens, UniProt Q15125). Description: Inhibition of EBP derived from HEK293T cells using zymosterol-d5 as substrate preincubated for 30 mins followed by substrate addition measured after 4 hrs by LC-APCI MRM MS analysis. The experiment is classed as cell-based.
`COc1nccc(S(=O)(=O)N2CCC3(CCC(N4CCOCC4)C3)CC2)c1F` (stereo unspecified) showed a pIC50 of over 7.00.

Molecule `Cn1nc(C2CC2)cc1S(=O)(=O)N1CCC2(CC1)CC(NC1CCOCC1)C2` gave a pIC50 of over 7.00.

Molecule `O=S(=O)(c1ccc2c(c1)OCCO2)N1CCC2(CCC(N3CC4(COC4)C3)C2)CC1` (stereo unspecified) had a pIC50 of over 7.00.

As to `O=S(=O)(c1ccc(F)cc1)N1CCC2(CCC(N3CC4(COC4)C3)C2)CC1` (stereo unspecified), the negative-log IC50 (pIC50) is over 7.00.

For the molecule `O=S(=O)(c1coc(C(F)(F)F)c1)N1CCC2(CCC(N3CC4(COC4)C3)C2)CC1` (stereo unspecified), the pIC50 is over 7.00.

`Cc1nc(C(F)(F)F)ncc1S(=O)(=O)N1CCC2(CC1)CC(N(C)C1CC3(COC3)C1)CO2` (stereo unspecified) showed a pIC50 of over 7.00.
